The record followed here is patent US9682938B2, “Pyrazolone derivatives as nitroxyl donors” (Cardioxyl Pharmaceuticals, Inc., priority 2014, dated 2017).

Format in all cases: in vitro ADME
Data set [1] is described as follows: In vitro plasma stability, dog plasma. The settings on record: male, pH 7.4, 5 μM, 37° C., sampling 0-360 minutes, read-out: T1/2 Dog. How it is done:
(§1) Certain compounds from Table 1 were tested for their stability in plasma. The assay system comprised plasma from rat, dog or human (at least 3 donors, male, pooled) at pH 7.4, and (ii) an anticoagulant (sodium heparin or sodium citrate). Each test compound (5 μM) was incubated in plasma at 37° C. on a THERMOMIXER® with shaking. Three samples (n=3) were taken at each of seven sampling time points: 0, 10, 30, 60, 90, 180 and 360 minutes. The samples were immediately combined with 3 volumes (i.e., 3 times the volume of plasma) of acetonitrile containing 1% formic acid and an internal standard to terminate the reaction. AB SCIEX API 3000 LC-MS/MS analysis of the test compounds was performed without a standard curve. Plasma half-lives (T1/2) of the test compounds were determined from graphs of the percent remaining values using the peak area response ratio.

Data set [2] in a line: In vitro plasma stability, rat plasma. The settings on record: male, pH 7.4, 5 μM, 37° C., sampling 0-360 minutes, read-out: T1/2 Rat. On the procedure: as §1
The nature of data set [3]: In vitro plasma stability, human plasma. The settings on record: male, pH 7.4, 5 μM, 37° C., sampling 0-360 minutes, read-out: T1/2 Human. How it is done:
as §1

Regarding `COc1ccc(C2=NN(C)C(=O)C2(C)NO)cc1` (stereo not drawn) [Compound 53, 4-(hydroxyamino)-3-(4-methoxyphenyl)-1,4-dimethyl-1H-pyrazol-5(4H)-one], the half-life at 5 μM in data set [1] is 256 min; in data set [2] it was 350 min; in data set [3], 480 min.

As to `CN1N=C(c2ccc(OC(F)(F)F)cc2)C(C)(NO)C1=O` (stereo not drawn) [Compound 59, 4-(hydroxyamino)-1,4-dimethyl-3-(4-(trifluoromethoxy)phenyl)-1-pyrazol-5(4H)-one], the results for the half-life at 5 μM in data set [1], in data set [2] and in data set [3] were 150 min, 80 min and 77 min, respectively.

As to `CO/N=C(\C)C1(NO)C(=O)N(C)N=C1c1ccc(F)cc1` (stereo not drawn) [Compound 64, 3-(4-fluorophenyl)-4-(hydroxyamino)-4-(1-(methoxyimino)ethyl)-1-methyl-1H-pyrazol-5(4H)-one], the values for the half-life at 5 μM in data set [1], in data set [2] and in data set [3] were 16 min, 6 min and 8 min, respectively.

As to `CC1=NN(C)C(=O)C1(NO)c1ccc(Cl)cc1` (stereo not drawn) [Compound 66, 4-(4-chlorophenyl)-4-(hydroxyamino)-1,3-dimethyl-1H-pyrazol-5(4H)-one], the half-life at 5 μM in data set [1] turned out to be 7 min; in data set [2] it was 7 min; in data set [3], 10 min.

For the molecule `CN1N=C(c2ccc(SC(F)(F)F)cc2)C(C)(NO)C1=O` (stereo not drawn) [Compound 67, 4-(hydroxyamino)-1,4-dimethyl-3-(4-((trifluoromethyl)thio)phenyl)-1H-pyrazol-5(4H)-one], the half-life at 5 μM in data set [1] is 78 min; in data set [2], 106 min; in data set [3], 59 min.

For `CN1N=C(c2ccc(S(C)(=O)=O)c(Cl)c2)C(C)(NO)C1=O` (stereo not drawn) [Compound 70, 3-(3-Chloro-4-methanesulfonylphenyl)-4-(hydroxyamino)-1,4-dimethyl-4,5-dihydro-1H-pyrazol-5-one], the half-life at 5 μM in data set [1] is 27 min; in data set [2] it was 43 min; in data set [3] it was 31 min.

`COC(=O)c1ccc(C2=NN(C)C(=O)C2(C)NO)cc1` (stereo not drawn) [Compound 71, Methyl 4-[4-(hydroxyamino)-1,4 dimethyl-5-oxo-4,5-dihydro-1H-pyrazol-3-yl]benzoate]: the half-life at 5 μM is 71 min in data set [1], 3 min in data set [2] and 58 min in data set [3].

Consider `CN1N=C(c2ccc(S(C)(=O)=NC(=O)C(F)(F)F)cc2)C(C)(NO)C1=O` (stereo not drawn) [Compound 72, 2,2,2-Trifluoro-N-({4-[4-(hydroxyamino)-1,4-dimethyl-5-oxo-4,5-dihydro-1H-pyrazol-3-yl]phenyl}(methyl)oxo-λ^6-sulfanylidene)acetamide], for which the half-life at 5 μM in data set [1] came out at 12 min; in data set [2], 9 min; in data set [3], 13 min.

On to `COc1ccc(C2(NO)C(=O)N(C)N=C2C)cc1OC` (stereo not drawn) [Compound 73, 4-(3,4-Dimethoxyphenyl)-4-(hydroxyamino)-1,3-dimethyl-4,5-dihydro-1H-pyrazol-5-one], for which the half-life at 5 μM was 13 min in data set [1], 18 min in data set [2] and 14 min in data set [3].

`CN1N=C(c2ccc(C(=O)O)cc2)C(C)(NO)C1=O` (stereo not drawn) [Compound 74, 4-[4-(Hydroxyamino)-1,4-dimethyl-5-oxo-4,5-dihydro-1H-pyrazol-3-yl]benzoic acid]: the figures for the half-life at 5 μM in data set [1], in data set [2] and in data set [3] were 175 min, 243 min and 183 min, respectively.

With `COc1cc(C2=NN(C)C(=O)C2(C)NO)ccc1S(C)(=O)=O` (stereo not drawn) [Compound 77, 4-(Hydroxyamino)-3-(4-methanesulfonyl-3-methoxyphenyl)-1,4-dimethyl-4,5-dihydro-1H-pyrazol-5-one], the half-life at 5 μM in data set [1] amounted to 37 min; in data set [2], 62 min; in data set [3], 40 min.
